Publication PMC4558462, “A new small molecule inhibitor of soluble guanylate cyclase” (Bioorganic & Medicinal Chemistry, 2015)
Like-named read-outs stand apart in the source and are kept apart here.

Target: T1, purified bovine lung sGC (Bos taurus, UniProt P16068+P19687)
T1 construct: screened at 100 μM against purified bovine lung sGC; purchased Enzo lifesciences ALX-202-039-C005; host or cells: bovine lung
T1 sequence (P19687 1-691): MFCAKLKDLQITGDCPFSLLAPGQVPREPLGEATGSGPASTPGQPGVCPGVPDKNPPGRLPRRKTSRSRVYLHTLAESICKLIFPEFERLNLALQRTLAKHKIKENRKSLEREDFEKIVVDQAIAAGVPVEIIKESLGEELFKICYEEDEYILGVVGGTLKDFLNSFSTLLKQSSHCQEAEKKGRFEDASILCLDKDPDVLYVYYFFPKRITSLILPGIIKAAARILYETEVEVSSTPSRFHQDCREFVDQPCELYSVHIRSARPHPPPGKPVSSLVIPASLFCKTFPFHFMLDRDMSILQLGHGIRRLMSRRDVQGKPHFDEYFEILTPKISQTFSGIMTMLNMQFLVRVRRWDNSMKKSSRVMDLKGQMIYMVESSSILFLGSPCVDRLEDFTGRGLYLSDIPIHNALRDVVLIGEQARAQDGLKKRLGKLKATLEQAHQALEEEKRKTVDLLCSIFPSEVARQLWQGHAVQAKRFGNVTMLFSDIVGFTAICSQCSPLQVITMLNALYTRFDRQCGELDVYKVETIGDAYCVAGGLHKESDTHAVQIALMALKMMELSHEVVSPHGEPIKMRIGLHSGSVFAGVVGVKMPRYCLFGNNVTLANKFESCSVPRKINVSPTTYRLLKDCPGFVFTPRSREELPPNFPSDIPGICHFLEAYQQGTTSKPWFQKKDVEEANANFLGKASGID
T1 sequence (P16068 1-619): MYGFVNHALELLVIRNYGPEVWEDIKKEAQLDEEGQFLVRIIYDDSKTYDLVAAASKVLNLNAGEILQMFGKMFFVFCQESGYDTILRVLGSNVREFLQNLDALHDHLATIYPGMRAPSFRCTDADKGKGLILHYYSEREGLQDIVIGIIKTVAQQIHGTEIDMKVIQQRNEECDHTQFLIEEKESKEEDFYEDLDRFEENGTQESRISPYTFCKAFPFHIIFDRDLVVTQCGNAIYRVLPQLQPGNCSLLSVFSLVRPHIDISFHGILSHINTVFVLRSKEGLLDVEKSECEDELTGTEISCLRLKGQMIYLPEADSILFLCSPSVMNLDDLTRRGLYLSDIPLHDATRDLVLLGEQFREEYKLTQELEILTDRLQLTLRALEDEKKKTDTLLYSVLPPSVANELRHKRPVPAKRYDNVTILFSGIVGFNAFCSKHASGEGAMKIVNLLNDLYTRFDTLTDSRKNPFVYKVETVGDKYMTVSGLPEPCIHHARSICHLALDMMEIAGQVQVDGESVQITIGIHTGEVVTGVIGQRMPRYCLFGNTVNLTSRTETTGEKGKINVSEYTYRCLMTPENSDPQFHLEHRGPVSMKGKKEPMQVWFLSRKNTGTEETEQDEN
Assay: Soluble guanylate cyclase activity assay (cGMP radioimmunoassay)
Format: biochemical
Protocol: Virtual screening was performed by similarity searches using MACCS fingerprints at 85% and 75% Tanimoto of commercial libraries and the selected compounds were screened at 100 μM against purified bovine lung sGC using diethylamine NONOate (30 nM) as the NO donor. Enzyme activity was determined by measuring cGMP production using a standard cGMP [^3H] radioimmunoassay.[21,22]
[…] Compounds were added at 100 μM prior to adding the NO donor DEA/NO (30 nM) or clamped NO concentrations. cGMP generation was allowed to proceed for two minutes, after which aliquots were withdrawn and inactivated by boiling in 50 mM Tris, 4 mM EDTA buffer. cGMP formation was measured by a standard radioimmunoassay.

With O=[N+]([O-])c1ccc2nc(Nc3ccc(O)cc3)c(Nc3ccc(O)cc3)nc2c1 [Compound 10, 4,4′-((6-Nitroquinoxaline-2,3-diyl)bis(azanediyl))diphenol] as the compound, how does the Hill slope (GC activator cinaciguat 20 nM) read?
Its Hill slope is 4.

What about the IC50 (GC activator cinaciguat 20 nM, no NO, read-out: IC50 (μM) ± SE) of the same compound?
The IC50 was 25 ± 4 µM.

And the Hill slope (GC activator cinaciguat 1 μM)?
The Hill slope was 4.

What about the IC50 (GC activator cinaciguat 1 μM, no NO, read-out: IC50 (μM) ± SE) of the same compound?
The IC50 was 37 ± 40 µM.

What about the IC50 (NO 0.3 nM, GTP 50 μM, read-out: IC50, NO-stimulated cGMP production by isolated sGC) of the same compound?
The IC50 was 21 ± 3 µM.

What about the IC50 (NO 0.3 nM, GTP 200 μM, read-out: IC50, NO-stimulated cGMP production by isolated sGC) of the same compound?
Its IC50 is 33 ± 4 µM.

And the IC50 (NO 0.3 nM, GTP 1000 μM, read-out: IC50, NO-stimulated cGMP production by isolated sGC)?
Its IC50 is 33 ± 9 µM.

What about the IC50 (NO 10 nM, GTP 50 μM, read-out: IC50, NO-stimulated cGMP production by isolated sGC) of the same compound?
Its IC50 is 19 ± 2 µM.

What about the IC50 (NO 10 nM, GTP 200 μM, read-out: IC50, NO-stimulated cGMP production by isolated sGC) of the same compound?
The IC50 was 19 ± 1 µM.

What about the IC50 (NO 10 nM, GTP 1000 μM, read-out: IC50, NO-stimulated cGMP production by isolated sGC) of the same compound?
The IC50 was 34 ± 2 µM.

And the “inhibition of cGMP production after enzyme activation with cinaciguat (in words)” value (cinaciguat-activated, no NO)?
The value was “capable of inhibiting cGMP production”.

And the inhibition at 100 µM (read-out: % inhibition of sGC activity at 100 μM compound)?
The inhibition at 100 µM was 99%.

What about the inhibition at 100 µM (read-out: sGC activity% inhibition at 100 μM) of the same compound?
Its inhibition at 100 µM is 56.2 ± 22.4%.
